# From patent US20240245709A1, “[…] USE IN TREATMENT OF E[…] EPILEPTICUS” (MARINUS PHARMACEUTICALS, INC., priority 2021, published 2024)
# How the values were obtained:
# [1] = Toxicology studies in animals focusing on prenatal and neonatal development; format: in vivo
# Text: (§1) Ganaxolone has been administered to infants with severe forms of epilepsy as early as 4 months of age. In clinical trials involving administration of ganaxolone over several weeks, the study drug has been tapered off over a 1 to 2-week period.
# [2] = human plasma, oral administration; cited from earlier work
# [3] = Clinical safety in the ganaxolone development program (placebo-controlled Phase 1, 2 and 3 studies); format: in vivo, human
# Text: In the completed placebo-controlled Phase 1, 2, and 3 studies, 0.32% of subjects who received ganaxolone and 0.46% of subjects who received placebo developed elevated LFTs during the study (>3×ULN AST and/or ALT). A subject participating in the ganaxolone paediatric epilepsy study developed liver failure, which was not considered to be related to ganaxolone. The subject was diagnosed with short bowel syndrome, liver steatosis and IgG-cholangitis, which were considered to be the causal factors for the subject's liver failure. There have been no other cases of Hy's Law or liver failure in the ganaxolone development program. […] After cessation of the dosing, plasma ganaxolone levels are expected to drop rapidly, but it is possible that low sub-therapeutic levels persist for several days as ganaxolone is slowly released from tissues.
# as §1
# [4] = Human plasma pharmacokinetics following oral administration; format: in vivo
# Description: (§2) Ganaxolone is insoluble in water. […] 3.5 mg/mL, and 3.1 mg/mL, respectively. Ganaxolone has a relatively long half-life—approximately 20 hours in human plasma following oral administration (Nohria, V. and Giller, E., Neurotherapeutics, (2007) 4(1): 102-105). Furthermore, ganaxolone has a short Tmax, which means that therapeutic blood levels are reached quickly.
# [5] = Solubility of ganaxolone in solvents; format: physicochemical
# Description: as §2
# Ganaxolone formulations suitable for parenteral administration in the methods of the present invention may comprise physiologically acceptable sterile aqueous or non-aqueous solutions, dispersions, suspensions or emulsions, and sterile powders for reconstitution into sterile injectable solutions or dispersions. Examples of suitable aqueous and non-aqueous carriers, diluents, solvents, or vehicles including water, ethanol, polyols (propylene glycol, polyethylene-glycol, glycerol, cremophor and the like), suitable mixtures thereof, vegetable oils (such as olive oil) and injectable organic esters such as ethyl oleate. Additionally, ganaxolone can be dissolved at concentrations of >1 mg/ml using water soluble beta cyclodextrins (e.g. beta-sulfobutyl-cyclodextrin and 2-hydroxypropylbetacyclodextrin). A particularly suitable cyclodextrin is a substituted-β-cyclodextrin is Captisol®. […]
# [6] = system: CYP3A4/5; assay: Metabolism and effect of strong CYP inducers on ganaxolone clearance (in vitro data and human PK data)
# [7] = biological target: T1, progesterone receptor (Homo sapiens, UniProt P06401); assay: Progesterone receptor activation; settings: directly or indirectly, via metabolic conversion
# T1 sequence (P06401 1-933): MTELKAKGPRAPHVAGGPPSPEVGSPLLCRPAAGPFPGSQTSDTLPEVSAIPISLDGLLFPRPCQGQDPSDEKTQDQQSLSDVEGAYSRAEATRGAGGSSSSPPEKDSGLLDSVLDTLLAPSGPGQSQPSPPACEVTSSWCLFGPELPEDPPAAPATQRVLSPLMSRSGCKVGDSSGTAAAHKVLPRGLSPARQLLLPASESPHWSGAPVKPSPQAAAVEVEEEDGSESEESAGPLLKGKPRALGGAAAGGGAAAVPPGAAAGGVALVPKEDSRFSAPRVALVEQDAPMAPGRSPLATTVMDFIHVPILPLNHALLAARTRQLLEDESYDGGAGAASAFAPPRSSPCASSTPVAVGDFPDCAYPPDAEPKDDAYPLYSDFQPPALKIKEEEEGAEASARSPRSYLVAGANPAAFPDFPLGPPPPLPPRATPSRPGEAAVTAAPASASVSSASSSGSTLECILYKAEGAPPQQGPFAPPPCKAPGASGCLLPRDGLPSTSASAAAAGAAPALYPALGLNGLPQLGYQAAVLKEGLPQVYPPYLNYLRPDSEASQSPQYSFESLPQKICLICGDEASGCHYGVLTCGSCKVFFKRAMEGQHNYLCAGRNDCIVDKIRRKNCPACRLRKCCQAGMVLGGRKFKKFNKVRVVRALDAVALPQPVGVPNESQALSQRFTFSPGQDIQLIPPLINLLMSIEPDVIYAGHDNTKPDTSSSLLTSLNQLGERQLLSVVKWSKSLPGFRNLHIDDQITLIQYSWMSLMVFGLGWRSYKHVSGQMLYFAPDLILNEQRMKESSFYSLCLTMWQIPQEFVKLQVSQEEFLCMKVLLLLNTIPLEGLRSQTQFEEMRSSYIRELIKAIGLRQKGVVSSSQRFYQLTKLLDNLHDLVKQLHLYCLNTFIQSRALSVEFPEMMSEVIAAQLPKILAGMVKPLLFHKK
# Text: Ganaxolone (3α-hydroxy-3β-methyl-5α-pregnan-20-one) is a 3β-methylated synthetic analogue of the endogenous neurosteroid allopregnanolone with similar biological activity (Carter et al., (1997), The Journal of Pharmacology and Experimental Therapeutics, 280:1284-1295), but it is designed to not activate nuclear (classical) progesterone receptors.
smiles,measurement,setting,value
"CC(=O)[C@H]1CC[C@H]2[C@@H]3CC[C@H]4C[C@](C)(O)CC[C@]4(C)[C@H]3CC[C@]12C [ganaxolone, 3α-hydroxy-3β-methyl-5α-pregnan-20-one]",prenatal and neonatal developmental toxicity,[1],have not demonstrated toxicities
same,half-life,[2],approximately 20 hours
same,withdrawal symptoms after cessation,"[3]; clinical trials, several weeks of administration, tapered off over 1 to 2 weeks",no reports of withdrawal symptoms
same,subjects who developed elevated LFTs (>3×ULN AST and/or ALT),"[3]; completed placebo-controlled Phase 1, 2 and 3 studies",0.32%
same,"trends in ECG intervals, vital signs, physical or neurological examinations",[3]; development program overall,no clinically significant trends
same,excretion to breast milk,[3]; ganaxolone and its metabolites,excreted to breast milk
same,plasma concentration that can induce anesthesia,"[3]; subject, intravenous administration",above 1000 ng/ml
same,Tmax,"[4]; human, in vivo",short
same,oral bioavailability,[4]; in contrast to allopregnanolone,orally bioavailable
same,solubility,"[5]; aqueous with cosolvent or surfactant or cyclodextrin, beta-sulfobutyl-cyclodextrin and 2-hydroxypropylbetacyclodextrin, read-out: concentration dissolved using water soluble beta cyclodextrins",> 1000 µg/mL
same,solubility in water,[5]; water,insoluble
same,metabolizing enzyme,"[6]; human, in vivo",metabolized by CYP3A4/5
same,lowering in overall ganaxolone levels and exposure,[6]; subjects taking strong CYP inducers (carbamazepine and phenytoin),~45%
same,activation of the progesterone receptor,[7],does not activate
